Experiment [1] addresses T1, hOGT (312-1031) (Homo sapiens, UniProt O15294, H568F).
T1 sequence (O15294 322-1041 H568F): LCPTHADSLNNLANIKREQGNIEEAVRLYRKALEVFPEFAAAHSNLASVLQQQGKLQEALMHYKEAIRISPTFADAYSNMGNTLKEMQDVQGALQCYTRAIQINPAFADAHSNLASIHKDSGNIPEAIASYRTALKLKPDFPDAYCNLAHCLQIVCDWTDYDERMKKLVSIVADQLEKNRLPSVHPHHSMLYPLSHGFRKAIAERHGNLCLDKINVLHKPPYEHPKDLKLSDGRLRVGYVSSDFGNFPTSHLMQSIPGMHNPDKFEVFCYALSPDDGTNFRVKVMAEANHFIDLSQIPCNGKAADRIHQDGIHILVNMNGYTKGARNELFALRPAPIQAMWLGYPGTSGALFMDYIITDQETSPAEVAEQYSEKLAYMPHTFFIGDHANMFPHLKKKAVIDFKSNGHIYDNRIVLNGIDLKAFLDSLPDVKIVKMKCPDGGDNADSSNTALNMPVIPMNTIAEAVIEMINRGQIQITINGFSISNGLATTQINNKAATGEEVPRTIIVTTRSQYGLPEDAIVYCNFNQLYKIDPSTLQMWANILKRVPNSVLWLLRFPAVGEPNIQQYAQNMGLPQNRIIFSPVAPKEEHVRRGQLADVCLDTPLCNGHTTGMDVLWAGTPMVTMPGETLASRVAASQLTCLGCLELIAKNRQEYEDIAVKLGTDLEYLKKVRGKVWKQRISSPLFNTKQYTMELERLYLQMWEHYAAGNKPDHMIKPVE
Briefly: surface plasmon resonance, […] equilibrium fit. Format: binding. On the technique in general: In SPR one partner is held on a chip, and binding of the other changes the refractive index at the surface.

Experiment [2] addresses T2, hOGT (312-1031) (Homo sapiens, UniProt O15294).
T2 sequence (O15294 322-1041): T1 sequence (O15294 322-1041 H568F) with F247H
The experiment can be described thus: surface plasmon resonance, […] equilibrium fit. The class given is binding.

Experiment [3] has as its target T3, hOGT (312-1031) (Homo sapiens, UniProt O15294, K852M).
T3 sequence (O15294 322-1041 K852M): T1 sequence (O15294 322-1041 H568F) with F247H, K531M
The experiment can be described thus: surface plasmon resonance, […] equilibrium fit. The class given is binding.

For experiment [4], the target named is T4, hOGT (312-1031) (Homo sapiens, UniProt O15294, D564N).
T4 sequence (O15294 322-1041 D564N): T1 sequence (O15294 322-1041 H568F) with D243N, F247H
Briefly: surface plasmon resonance, […] equilibrium fit. The class given is binding.

Experiment [5] addresses T2, hOGT (312-1031). The experiment can be described thus: in vitro O-GlcNAc transfer inhibition. Format: biochemical.

Changes are numbered by the printed parent chain.

For the molecule `CC(=O)N[C@H]1[C@@H](OP(=O)(O)OP(=O)(O)OC[C@H]2O[C@@H](n3ccc(=O)[nH]c3=O)[C@H](O)[C@@H]2O)O[C@H](CO)[C@@H](O)[C@@H]1O` [UDP-GlcNAc], the Kd was 42.3 ± 0.4 µM on hOGT (312-1031) [1], 16.1 ± 0.1 µM at hOGT (312-1031) [2], 4.7 ± 0.1 µM on hOGT (312-1031) [3] and 32.1 ± 0.3 µM on hOGT (312-1031) [4].
As for `O=c1ccn([C@@H]2O[C@H](COP(=O)(O)OP(=O)(O)O)[C@@H](O)[C@H]2O)c(=O)[nH]1` [UDP], the Kd is 0.7 ± 0.1 µM at hOGT (312-1031) [1] and 0.6 ± 0.03 µM at hOGT (312-1031) [4].
As for `CC(=O)N[C@@H]1[C@@H](O)[C@H](O)[C@@H](CO)S[C@@H]1OP(=O)(O)OP(=O)(O)OC[C@H]1O[C@@H](n2ccc(=O)[nH]c2=O)[C@H](O)[C@@H]1O` [compound 1, UDP-5S-GlcNAc], binding at hOGT (312-1031) [3] was characterised by a dissociation constant (Kd) of 5.7 ± 0.1 µM.
With `O=C(N[C@H]1[C@@H](OP(=O)(O)OP(=O)(O)OC[C@H]2O[C@@H](n3ccc(=O)[nH]c3=O)[C@H](O)[C@@H]2O)O[C@H](CO)[C@@H](O)[C@@H]1O)C(F)(F)F` [compound 2, UDP-GlcNAcF3], the Kd at hOGT (312-1031) [2] worked out at 12.1 ± 0.1 µM; at hOGT (312-1031) [3], 29.3 ± 0.1 µM.
For the molecule `CC(=O)N[C@H]1[C@@H](OP(=O)(O)O[P@](O)(=S)OC[C@H]2O[C@@H](n3ccc(=O)[nH]c3=O)[C@H](O)[C@@H]2O)O[C@H](CO)[C@@H](O)[C@@H]1O` [compound 4, RP-αS-UDP-GlcNAc], the Kd turned out to be 11.3 ± 0.1 µM at hOGT (312-1031) [2] and 2.8 ± 0.1 µM at hOGT (312-1031) [3]. Also, half-maximal inhibition at hOGT (312-1031) [5] (IC50) required 25 µM.

One may read the Kd as the constant that tells how readily two partners part at equilibrium. A word on the IC50: it is the concentration needed to halve the response being measured. A high value points to weaker potency.

The values are drawn from paper PMC3509171 (Nature chemical biology, 2012).
